Results on eleven molecules are retold here after article PMC7441487 (mBio, 2020).

Structures are written as SMILES. “Also recorded” adds a separate entry of the source. Read-outs that look alike come from different tables or passages of the source.

Data set [1] concerns SARS-CoV-2^WK-521. Put plainly: Antiviral assay: viral RNA in culture supernatants by RNA-qPCR (RT-qPCR), VeroE6 cells. The class given is cell-based. The conditions noted are these: for Selectivity index: ratio of CC50 to EC50, VeroE6 cells. A general note: In qPCR the cycle at which signal appears reflects the starting amount.
A short description of data set [2]: Cytotoxicity, WST-8 assay (Cell Counting Kit-8). It counts as cell-based. The conditions noted are these: African green monkey, VeroE6 cells. In general terms: Tetrazolium assays rely on reduction of a dye to a coloured formazan, in cell work by metabolically active cells.
For data set [3], the system named is VeroE6 cells. In words: Cytotoxicity, WST-8 assay (Cell Counting Kit-8). The class given is cell-based. The conditions noted are these: concentrations up to 100 μM.
The subject of data set [4] is SARS-CoV-2^WK-521. In words: Immunocytochemistry, high-stringency assay (VeroE6^TMPRSS2 cells and SARS-CoV-2^WK-521). It counts as cell-based. The conditions noted are these: VeroE6^TMPRSS2 cells; for Block of infectivity and cytopathic effect of SARS-CoV-2^WK-521 (immunocytochemistry): overall statement, Fig. 3B; for Observation by immunocytochemistry: 100 μM; for Antiviral effect seen by immunocytochemistry: 1 and 10 μM. (In general: Cytopathic effects are the visible damage that an infection or toxin causes in cultured cells.)

Data set [5] has as its system SARS-CoV-2^WK-521. In words: Immunocytochemistry, low-stringency assay (VeroE6 cells and SARS-CoV-2^WK-521). It counts as cell-based. The conditions noted are these: VeroE6 cells; for Block of SARS-CoV-2^WK-521 infection (immunocytochemistry): overall statement over the concentrations tested.
The subject of data set [6] is SARS-CoV-2. The conditions noted are these: Calu-3 cells exposed to SARS-CoV-2; cited from earlier work.
For data set [7], the system named is SARS-CoV-2^WK-521. The conditions noted are these: VeroE6 cells; 100 μM; 3 days.
In data set [8] the target is SARS-CoV-2 M^pro (Severe acute respiratory syndrome coronavirus 2, UniProt P0DTD1). Put plainly: M^pro molecular weight analysis with HPLC/MS (covalent binding). The conditions noted are these: 100 μM compound, 37°C, 30 min.
The target in data set [9] is HIV-1 protease (Human immunodeficiency virus type 1 group M subtype B, UniProt P04585). Put plainly: Thermal stability of HIV-1 protease by differential scanning fluorimetry (control). The class given is binding. The conditions noted are these: HIV-1 protease 5 μM + 5 μM compound (1:1); protease alone 54.78°C.
[10] abbreviates: Severe acute respiratory syndrome coronavirus 2, Vero C1008, read-out: EC50 ±SD.

As for `NC(=O)c1nc(F)c[nH]c1=O` [Favipiravir, favipiravir], the EC50 (commonly the concentration giving half of the maximal effect) in data set [1] (setting [10]) was more than 100 µM. The CC50 (commonly the concentration that lowers cell viability or growth by half) at 3 days in [2] was more than 100 µM. For the same molecule, the “Cytotoxicity (in words)” value in data set [3] is reported as “nontoxic at all concentrations tested”. Besides, in data set [4], the “Block of infectivity and cytopathic effect of SARS-CoV-2^WK-521 (immunocytochemistry)” value is listed as “failed to block the infection”. Also, the “Block of SARS-CoV-2^WK-521 infection (immunocytochemistry)” value (from here on “Block of SARS-CoV-2^WK-521 infection”) in data set [5] is on record as “failed to block SARS-CoV-2 infection”.

Turning to `N=C(N)c1ccc2cc(OC(=O)c3ccc(N=C(N)N)cc3)ccc2c1` [Nafamostat, nafamostat], the CC50 at 3 days in data set [2] was more than 100 µM. Moreover, in data set [3], the “Cytotoxicity (in words)” value is reported as “nontoxic at all concentrations tested”. The “Cytotoxicity seen in immunocytochemistry” value in data set [5] is reported as “did not exert significant toxicity; also recorded: not significantly cytotoxic”. The entries for the “Block of SARS-CoV-2^WK-521 infection” value in [5] and in [5] (listed as nafamostat) were “inactive against the virus” and “did not exert significant antiviral activity; also recorded: failed to block SARS-CoV-2 infection”, respectively. In addition, the EC50 in data set [6] is 0.005 µM.

With `O=C(Oc1cncc(Cl)c1)c1cccc2[nH]ccc12` [GRL-0920], in data set [1] (setting [10]), the concentration giving a half-maximal response (EC50) came to 8.6 ± 2.8 µM. The molecule also came in with a CC50 at 3 days in data set [2] of more than 100 µM. Besides, the Observation by immunocytochemistry result in [4] was “essentially no infected cells seen”; in data set [5] (10 μM) it was “further suppression of viral replication”; in data set [5] (100 μM) it was “completely blocked; also recorded: complete”. The “Block of infectivity and cytopathic effect of SARS-CoV-2^WK-521 (immunocytochemistry)” value in data set [4] is “potently blocked; also recorded: completely blocked”. Besides, the “Block of SARS-CoV-2^WK-521 infection” value in data set [5] is “completely blocked the infectivity”. Besides, in [7], the “Protection of virus-exposed cells (light microscopy)” value is reported as “appeared to be protected”.

In the case of `CCN(CC)CCCC(C)Nc1ccnc2cc(Cl)ccc12` (stereo not drawn) [Chloroquine, chloroquine], the Observation by immunocytochemistry entry in data set [5] (10 μM) is listed as “slightly block infectivity”; in [5] (100 μM), “almost all the cells were shed from the wells”; in data set [5] (100 μM, listed as chloroquine), “almost all VeroE6 cells were lost”. In addition, the “Block of SARS-CoV-2^WK-521 infection” value in data set [5] is given as “failed to block the infectivity”.

Regarding `Cc1cccc(C)c1OCC(=O)N[C@@H](Cc1ccccc1)[C@@H](O)C[C@H](Cc1ccccc1)NC(=O)[C@H](C(C)C)N1CCCNC1=O` [Lopinavir, lopinavir], in data set [1] (setting [10]), the EC50 was 19 ± 8 µM. Also, in data set [1], the Selectivity index is reported as 2.7. The molecule also registered a CC50 at 3 days in [2] of 51 ± 5 µM. In data set [4], the Observation by immunocytochemistry result is given as “most of the cells were lost”; the “Antiviral effect seen by immunocytochemistry” value was “no detectable antiviral activity”; the “Block of infectivity and cytopathic effect of SARS-CoV-2^WK-521 (immunocytochemistry)” value is “failed to block the infection”. The “Block of SARS-CoV-2^WK-521 infection” value in data set [5] is on record as “failed to block SARS-CoV-2 infection”.

Regarding `C=CCn1ccc2c(C(=O)Oc3cncc(Cl)c3)cccc21` [GRL-0820], in [1] (Severe acute respiratory syndrome coronavirus 2, Vero C1008, read-out: Anti-SARS-CoV-2 EC50), the EC50 is 15 ± 18 µM. Further, the EC50 in data set [1] (setting [10]) is 23 ± 5 µM. In addition, the Selectivity index in data set [1] is on record as more than 4.3. Moreover, the CC50 at 3 days in [2] was more than 100 µM. Further, in [4], the Observation by immunocytochemistry result was “viral breakthrough had occurred”; the “Block of infectivity and cytopathic effect of SARS-CoV-2^WK-521 (immunocytochemistry)” value was “potently blocked; also recorded: permitted viral breakthrough”. For the same molecule, in data set [5], the “Block of SARS-CoV-2^WK-521 infection” value is reported as “permitted viral breakthrough”. Besides, the “Increase of the mass of M^pro” value in data set [8] was 183.85 amu. Besides, in data set [8] (TOF MS), the “Average mass of the major M^pro species with compound” value was 34,037.21.

For `CCC(CC)COC(=O)[C@H](C)N[P@](=O)(OC[C@H]1O[C@@](C#N)(c2ccc3c(N)ncnn23)[C@H](O)[C@@H]1O)Oc1ccccc1` [Remdesivir, remdesivir], the EC50 in data set [1] (setting [10]) was 1.2 ± 0.06 µM. Besides, in data set [1], the Selectivity index is more than 83. In addition, the CC50 at 3 days in data set [2] was more than 100 µM. Besides, the Observation by immunocytochemistry result in data set [4] was “essentially no infected cells seen”; in [5] (10 μM), “further suppression of viral replication”; in data set [5] (100 μM), “nearly complete”. Besides, in data set [4], the “Block of infectivity and cytopathic effect of SARS-CoV-2^WK-521 (immunocytochemistry)” value is “potently blocked; also recorded: permitted viral breakthrough”. In addition, in data set [5], the “Block of SARS-CoV-2^WK-521 infection” value was “significantly blocked SARS-CoV-2 infection but allowed viral breakthrough”. In addition, the “Protection of virus-exposed cells (light microscopy)” value in [7] was “appeared to be protected”.

With `CC(=O)Oc1ccccc1C(=O)Nc1ncc([N+](=O)[O-])s1` [Nitazoxanide, nitazoxanide], in data set [1] (setting [10]), the EC50 is 31 ± 6 µM. Also, the Selectivity index in data set [1] stood at 2.8. The same molecule came in with a CC50 at 3 days in data set [2] of 88 ± 3 µM. In addition, the Observation by immunocytochemistry entry in data set [5] (100 μM) is “only a few nuclei remained”; in data set [5] (1 and 10 μM) it was “did not exert activity against the virus”. For the same molecule, in data set [5], the “Block of SARS-CoV-2^WK-521 infection” value is listed as “did not block the infectivity”.

With `Cc1c(O)cccc1C(=O)N[C@@H](CSc1ccccc1)[C@H](O)CN1C[C@H]2CCCC[C@H]2C[C@H]1C(=O)NC(C)(C)C` [Nelfinavir, nelfinavir], the EC50 in data set [1] (setting [10]) turned out to be 3.1 µM. Also, the Selectivity index in data set [1] was 17. Besides, the CC50 at 3 days in [2] came to 53 ± 8 µM. Also, in [4], the Observation by immunocytochemistry entry is “most of the cells were lost”; the “Antiviral effect seen by immunocytochemistry” value is on record as “no detectable antiviral activity”; the “Block of infectivity and cytopathic effect of SARS-CoV-2^WK-521 (immunocytochemistry)” value is on record as “failed to block the infection”. Moreover, the “Block of SARS-CoV-2^WK-521 infection” value in data set [5] is “failed to block SARS-CoV-2 infection”.

On to `CCN(CCO)CCCC(C)Nc1ccnc2cc(Cl)ccc12` (stereo not drawn) [Hydroxychloroquine, hydroxychloroquine], for which the EC50 in data set [1] (setting [10]) stood at 5.1 ± 3.4 µM. The Selectivity index in [1] is reported as more than 20. Moreover, in [2], the CC50 at 3 days is more than 100 µM. The “Cytotoxicity (in words)” value in data set [3] is on record as “nontoxic at up to 100 μM”. In addition, the Observation by immunocytochemistry result in [5] (10 μM) is “slightly block infectivity”; in data set [5] (100 μM), “almost all the cells were shed from the wells; also recorded: virtually no cells were left”. The “Block of SARS-CoV-2^WK-521 infection” value in [5] is listed as “did not exert significant antiviral activity; also recorded: failed to block the infectivity”.

As to `CC(C)CN(C[C@@H](O)[C@H](Cc1cc(F)cc(F)c1)NC(=O)O[C@H]1C2COC3OCC1C3C2)S(=O)(=O)c1ccc2nc(NC3CC3)sc2c1` (stereo partly drawn) [GRL-142], in [9], the “Tm of HIV-1 protease” value is 87.13 °C.
